According to patent US20250339399A1, “SUPRAMOLECULAR SELF-ASSEMBLY SYSTEM” (Beijing Creatron Institute of Pharmaceutical Research Co., …, priority 2022, published 2025):
Counter-ions that a name gives are not always drawn. Like-named read-outs stand apart in the source and are kept apart here.

Tests used:
[1] = cited from earlier work; for Log D7.4: pH 7.4
[2] = Binary supramolecular self-assembly systems of polymer and target: guest concentration over incubation time (Comparative Example 2); type: physicochemical; settings: 6 h
Method: Experiments were conducted according to the steps in Comparative Example 1, and quantitative analysis was carried out using the analytical method for each target to investigate the regulation ability […] stacking.

[3] = Guest molecule concentration after incubation in initial medium without polymer (Comparative Example 1); type: physicochemical; settings: 37° C., pH 6.8 phosphate buffer
Method: (§1) pH 2.0 hydrochloric acid, pH 4.5 acetate, and pH 6.5, pH 6.8, or pH 7.4 phosphate buffer solutions were prepared. The selection of each initial medium followed the principle that the solubility in the initial medium of the selected targets (or active ingredients) should low enough, but should meet the detection sensitivity and accuracy requirements of the corresponding analytical methods. Each buffer as initial media was placed in a 50 ml test tube with a stopper, shaken in a constant temperature air shaker at 37° C.±0.5° C., with an amplitude of 200 rpm, and incubated for 1 hour. […] Samples were taken at 0.5 h, 3 h and 6 h after incubation, centrifuged at 37° C., 13000 rpm for 5 minutes, and the supernatant was diluted at least 10 times with the mobile phase under the target analyte analytical method, filtered, the initial filtrate was discarded, and the continued filtrate was used as the test solution for injection analysis. The corresponding HPLC method under each target object item in Table 8 was used to determine the content of each target substance. When the solubility of the target in the initial medium is below the quantitative limit of the analytical method, a small amount of surfactant, such as sodium dodecyl sulfate (SDS), Tween20, or Tween80, can be added appropriately.
The above targets were incubated at 37° C.±0.5° C. for different time in an initial medium without any polymer. Each solid target formed by molecular stacking was removed by centrifugation, and the supernatant was analyzed using the HPLC method under each target item (see Table 8). The theoretical addition concentration of each target when its supramolecular self-assembly system was built was determined by its maximum dose in clinical use.

[4] = Binary (carrier), ternary and quaternary supramolecular self-assembly systems of polymer, carrier building block and target: guest concentration over incubation time (Examples 1-56); type: physicochemical; settings: 6 h
Method: as §1
Experiments were conducted according to the steps in Comparative Example 1, and quantitative analysis was carried out using the analytical method for each target to investigate the regulation ability of each binary supramolecular self-assembly system built from 0.5% polymer and target on guest molecules stacking.
Ternary supramolecular self-assembly systems based on different polymers, carrier building blocks, and targets were built according to the experimental scheme in Table 12, to investigate the influence of synergistic regulation of the carrier building blocks and the polymers on the stacking of target molecules, as well as the stability of the supramolecular self-assembly systems jointly built by them over incubation time. The initial medium, quantitative analysis method, pre-treatment method, and initial theoretical concentration of the target, corresponding to each target molecule in the experiment, were consistent with those in Comparative Examples 1 and 2. After a target was added to the system, the target was uniformly dispersed by ultrasonication at 37° C. for half an hour and then shaken in a 37° C. constant temperature air shaker, and samples were collected after different incubation time, i.e. 0.5 h, 1 h, 2 h, 3 h, 4 h, and 6 h.

[5] = prost derivatives, Table 31 (relevant information)
[6] = Cannabidiol derivatives, Table 30 (chemical structures)

Compound	Log P [1, 6]	also measured
CCCCC[C@H](O)/C=C/[C@H]1[C@H](O)CC(=O)[C@@H]1CCCCCCC(=O)O [Alprostadil, alprostadil]	–	Log P [1, 5]: Log P 3.58 H,3 R-H 5
C=C(C)[C@@H]1CCC(C)=C[C@H]1c1c(O)cc(CCCCC)cc1OCCCN [compound 51, ((1′R,2′R)-6-(3-aminopropoxy)-5′-methyl-4-pentyl-2′-(prop-1-en-2-yl)-1′,2′,3′,4′-tetrahydro-[1,1′-biphenyl]-2-ol)]	Log P = 5.73 H-D:2,H-R = 3	–
C=C(C)[C@@H]1CCC(C)=C[C@H]1c1c(OC(=O)CO[Si](C)(C)C(C)(C)C)cc(CCCCC)cc1OC(=O)CO[Si](C)(C)C(C)(C)C [compound 54]	Log P = 9.55 H-D:0,H-R = 4	–
CCCCCc1cc(O)c2c(c1)OC(C)(C)[C@@H]1CCC(C)=C[C@@H]21 [compound 66, Tetrahydrocannabinol]	Log P = 5.73 H-D:1,H-R = 2	–
C=C(C)[C@H]1CC[C@H](C)C[C@@H]1c1c(O)cc(/C=C/c2ccccc2O)cc1O [compound 15, (5-((E)-2-hydroxystyryl-2-(1S,2S,5S)-5-methyl-2-(prop-1-en-2-yl)cyclohexyl)phenyl-1,3-diol)]	Log P = 6.48 H-D:3,H-R = 3	–
C=C(C)[C@@H]1CCC(C)=C[C@H]1c1c(O)cc(CCCCC)c(C(=O)O)c1O [compound 5, ((1′R,2′R)-2,6-dihydroxy-5′-methyl-4-pentyl-2′-(prop-1-en-2-yl)-1′,2′,3′,4′-tetrahydro-[1,1′-biphenyl]-3-carboxylic acid)]	–	Log D7.4 ([1]; Cannabidiol derivatives): 3.15
C=C(C)[C@@H]1CCC(C)=C[C@H]1c1c(O)cc(CCCC)cc1O [compound 4, ((1′R,2′R)-4-butyl-5′-methyl-2′-(prop-1-en-2-yl)-1′,2′,3′,4′-tetrahydro-[1,1′-biphenyl]-2,6-diol)]	Log P = 5.88 H-D:2,H-R = 2	–
C=C(C)[C@H]1CCC(C)=C[C@@H]1c1c(O)cc(CCCCC)cc1O [compound 19, ((1′S,2′S)-5′-methyl-4-pentyl-2′-(propanediol-1-en-2-yl)-1′,2′,3′,4′-tetrahydro-[1,1′-biphenyl]-2,6-diol)]	Log P = 6.33 H-D:2,H-R = 2	–
C=C(C)[C@@H]1CCC(C)=C[C@H]1C1=C(O)C(=O)C(CCCCC)=CC1=O [compound 59, (3-hydroxy-2-[(1R,6R)-3-methyl-6-prop-1-en-2-ylcyclohex-2-en-1-yl]-5-pentylcyclohex-2,5-diene-1,4-dione)]	Log P = 5.23 H-D:1,H-R = 3	–
C=C(C)c1ccc(C)cc1-c1c(O)cc(CCCCC)cc1O [compound 8, (5′-methyl-4-pentyl-2′-(prop-1-en-2-yl)-[1,1′-biphenyl]-2,6-diol)]	Log P = 6.85 H-D:2,H-R = 2	–
C=C(C)[C@@H]1CCC(C)=C[C@H]1c1c(O)cc(C(C)(C)CCCCCC)cc1O [compound 24, ((1′R,2′R)-5′-methyl-4-(2-methyloctan-2-yl)-2′-(prop-1-en-2-yl)-1′,2′,3′,4′-tetrahydro-[1,1′-biphenyl]-2,6-diol)]	Log P = 7.38 H-D:2,H-R = 2	–
CCCCCCC(C)(C)c1cc(OC)c([C@H]2C=C(CO)[C@H]3C[C@@H]2C3(C)C)c(OC)c1 [compound 30]	Log P = 6.39 H-D:1,H-R = 3	–
CCCCC(C)(C)[C@H](O)/C=C/[C@H]1[C@H](O)CC(=O)[C@@H]1CCCC/C=C/C(=O)OC [Gemeprost, gemeprost]	–	Log P [1, 5]: Log P:4.71 D-H: 2 R-H:4
C=C(C)[C@@H]1CCC(C)=C[C@H]1c1c(O)cc(CCCCC)cc1O [compound 1, ((1′R,2′R)-5′-methyl-4-pentyl-2′-(prop-1-en-2-yl)-1′,2′,3′,4′-tetrahydro-[1,1′-biphenyl]-2,6-diol)]	Log P = 6.32, H-D:2,H-R = 2	–
C=C(C)[C@@H]1CCC(C)=C[C@H]1c1c(O)cc(CCCC(=O)O)cc1O [compound 36, (4-((1′R,2′R)-2,6-dihydroxy-5′-methyl-2′-(prop-1-en-2-yl)-1′,2′,3′,4′-tetrahydro-[1,1′-biphenyl]-4-yl)butyric acid)]	Log P = 4.59 H-D:3,H-R = 4	–
CCCCCCC(C)(C)c1cc(O)c([C@@H]2CC(C)CC[C@H]2C(C)C)c(O)c1 (stereo partly drawn) [compound 29, (2-((1R,2S)-2-isopropyl-5-methylcyclohexyl)-5-(2-methyloctan-2-yl)benzene-1,3-diol)]	Log P = 8.55 H-D:2,H-R = 2	–
C=C(C)[C@H]1CCC(C)=C[C@@H]1c1c(O)cc(O)c(C(=O)CCc2ccccc2)c1O [compound 18, (3-phenyl-1-((1′S,2′S)-2,4,6-trihydroxy-5′-methyl-2′-(prop-1-en-2-yl)-1′,2′,3′,4′-tetrahydro-[1,1′-biphenyl]-3-yl)prop-1-one)]	Log P = 6.87 H-D:3,H-R = 4	–
CCCCCc1cc(O)c([C@@H]2C=C(C)CC[C@H]2C(C)C)c(O)c1 [compound 20, ((1′S,2′S)-2′-isopropyl-5′-methyl-4-pentyl-1′,2′,3′,4′-tetrahydro-[1,1′-biphenyl]-2,6-diol)]	Log P = 6.67 H-D:2,H-R = 2	–
C=C(C)[C@@H]1CCC(C(=O)O)=C[C@H]1c1c(O)cc(CCCCC)cc1O [compound 10, ((1R,6R)-2′,6′-dihydroxy-4′-pentyl-6-(prop-1-en-2-yl)-1,4,5,6-tetrahydro-[1,1′-biphenyl]-3-carboxylic acid)]	5.52	Log D7.4 ([1]; Cannabidiol derivatives): 2.40
(2-[(1R,2R)-2-[2,6- di(acetoxy)-4- pentenyl]-4- methylcyclohex-3- en-1-yl]prop-2-en- 1-yl acetate) [compound 58]	Log P = 5.31 H-D:0,H-R = 3	–
C=C(C)[C@@H]1CCC(C)=C[C@H]1c1c(O)cc(C)cc1O [compound 2, ((1′R,2′R)-4,5′-dimethyl-2′-(prop-1-en-2-yl)-1′,2′,3′,4′-tetrahydro-[1,1′-biphenyl]-2,6-diol)]	Log P = 4.55, H-D:2,H-R = 2	–
C=C(C)[C@@H]1CCC(C)=C[C@H]1c1c(O)cc(CCCCC)cc1OC [compound 7, ((1′R,2′R)-6-methoxy-5′-methyl-4-pentyl-2′-(prop-1-en-2-yl)-1′,2′,3′,4′-tetrahydro-[1,1′-biphenyl]-2-ol)]	Log P = 6.47 H-D:1,H-R = 2	–
C=C(C)[C@H]1CC[C@H](C)C[C@@H]1c1c(O)cc(/C=C/c2ccccc2)cc1O [compound 14, (2-((1S,2S,5S)-5-methyl-2-(prop-1-en-2-yl)cyclohexyl)-5-((E)-styryl)phenyl-1,3-diol)]	Log P = 6.78 H-D:2,H-R = 2	–
O=C1[C@@H]2[C@H]3CC[C@H](C3)[C@@H]2C(=O)N1C[C@@H]1CCCC[C@H]1CN1CCN(c2nsc3ccccc23)CC1 [Lurasidone hydrochloride]	–	Concentration of guest molecule in solution ([2]; binary: 0.25% 101): 32.4 µg/mL; Concentration of guest molecule in solution ([2]; binary: 0.25% 102H): 84.4 µg/mL; Concentration of guest molecule measured after different incubated time ([3]; 0.5 h): 7.3 µg/mL; Concentration of guest molecule measured after different incubated time ([3]; 3 h): 10.7 µg/mL; Concentration of guest molecule measured after different incubated time ([3]; 6 h): 3.2 µg/mL; Concentration of guest molecule in solution ([4]; binary: 0.25% 312): 71.5 µg/mL; Concentration of guest molecule in solution ([4]; binary: 0.25% 314): 56.6 µg/mL; Times that of the initial medium ([4]; binary: 0.25% 314): 81 times; Concentration of guest molecule in solution ([4]; binary: 0.5% 314): 198.8 µg/mL; Times that of the initial medium ([4]; binary: 0.5% 314): 284 times; Concentration of guest molecule in solution ([4]; binary: 0.5% 319): 2.3 µg/mL; Concentration of guest molecule in solution ([4]; ternary: 0.25% 102H + 312, carrier % not stated): 122.1 µg/mL; Concentration of guest molecule in solution ([4]; ternary: 0.25% 319 + 0.25% 101): 11.2 µg/mL; Concentration of guest molecule in solution ([4]; ternary: 102H + 310, carrier % not stated): 204.9 µg/mL; Concentration of guest molecule in solution ([4]; ternary: 102H + 313, carrier % not given): 135.7 µg/mL; Concentration of guest molecule in solution ([4]; ternary: 102H + 318, carrier % not stated): 141.8 µg/mL
